Values of other authors in paper PMC8748714, “Dynamics of GLP-1R peptide agonist engagement are correlated with kinetics of G protein activation” (Nature Communications, 2022).

What was measured:
[1] = test system: GLP-1R
Description: Despite this conservation, these peptides induce distinct signalling profiles and have different mechanisms for receptor interaction. […] While there was also conservation in the TM bundle interactions when engaged by the four peptides, differences were identified in how each peptide uses different networks to facilitate G protein coupling. This transmission of information across the TM bundle also enables G ...

[2] = test system: GLP-1R; conditions: vs full-length exendin-4

GLP-1 (Ala2Gly): GLP-1 with Ala2Gly substitution
effect of residue 2 substitution on affinity ([1]; ref 31-33 (chimera ref 32)): reduced affinity

exendin(9–39): N-terminally truncated exendin-4 lacking the first 8 amino acids
lower affinity than corresponding full-length peptide ([1]; exendin(9–39) vs exendin-4, GLP-1(15–36) vs GLP-1): 10–30 fold

truncation of the first two residues of exendin-4: exendin-4 truncated by the first two residues
affinity on truncation of first two residues ([1]; vs full-length exendin-4): does not significantly alter its affinity | decrease in potency for cAMP signalling on truncation of first two residues [2]: ~ 200 fold
